This note sets out measurements from patent publication US9561237B1, “Bis-(triethylphosphine)platinum(II) complexes with thiones as anti cancer agents” (KING FAHD UNIVERSITY OF PETROLEUM AND MINERALS, priority 2016, dated 2017).

Assay type in all cases: cell-based
Data set [1] has as its system HeLa (human cervical cancer) cell line. As to the kind of experiment: In vitro cytotoxic activity, MTT assay, HeLa. The settings on record: for IC50: 50, 25, 12.5 and 6.25 μM, three independent experiments, read-out: IC50 ± SEM (50% cell growth inhibition), HeLa; for Cytotoxic activity in words (comparison): 6.2 μM to 50 μM. The procedure: (§1) A Pt(II) metal precursor, cisplatin, carboplatin and seven synthesized complexes (1)-(7) were evaluated for their in-vitro cytotoxic activity against HeLa (human cervical cancer), A549 (human lung cancer), MCF-7 (human breast cancer) and HTC15 (human colon cancer) cell lines.
(§2) The cells were seeded at 4×10^3 cells/well in 100 μL DMEM (Dulbecco's Modified Eagle's Medium) containing 10%. FBS (Fetal Bovine Serum) in 96-well tissue culture plate and incubated for 72 h at 37° C., 5% CO2 in air and 90% relative humidity in CO2 incubator. […] The medium of wells was discarded and 100 μL DMEM containing MTT (3-(4,5-dimethylthiazol-2-Yl)-2,5-diphenyltetrazolium bromide) (5 mg/mL) was added to the wells and incubated in CO2 incubator at 37° C. in dark for 4 h. After incubation, a purple colored formazan (artificial chromogenic dye, product of the reduction of water insoluble tetrazolium salts e.g., MMT by dehydrogenases and reductases) in the cells is produced and appeared as dark crystals in the bottom of the wells. The medium of culture was discarded from each well carefully to avoid disruption of monolayer and 100 μL of dimethylsufoxide (DMSO) was added in each well. The solution was thoroughly mixed in the wells to dissolve the formazan crystals which ultimately result into a purple solution. The absorbance of the 96-wells plate was taken at 570 nm with Labsystems Multiskan EX-Enzyme-linked immunosorbent assay (EX-ELISA) reader against a reagent blank. The IC50 values were calculated from three independent experiments by generating an equation of logarithmic trendline of percentage cell viability against concentration of compounds in Microsoft Excel.
(§3) Preliminary anti-cancer activity studies were carried out on seven synthesized Pt(II) complexes (1)-(7), Pt(II) precursor, cisplatin and carboplatin against four cancer cell lines HeLa, A549, HCT15 and MCF-7 (human cancer cell lines) and an MTT assay was used to determine their dose-dependent cytotoxicity after 72 h [U. Bierbach, T. W. Hambly, N. Farrell, Inorg.
(§4) The MTT assay was performed in three independent experiments, each in triplicate. The cancer cell lines used are HeLa (human cervical cancer), A549 (human lung cancer), MCF-7 (human breast cancer) and HCT15 (human colon cancer) cell lines.
On the technique in general: Formazan colour is commonly taken as a measure of viable cells.

Data set [2] concerns A549 (human lung cancer) cell line. As to the kind of experiment: In vitro cytotoxic activity, MTT assay, A549. The following applies: for IC50: 50, 25, 12.5 and 6.25 μM, three independent experiments, read-out: IC50 ± SEM (50% cell growth inhibition), A549; for Cytotoxic activity in words (comparison): 6.2 μM to 50 μM. On the procedure: as §1, §2, §3, §4
Data set [3] concerns MCF-7 (human breast cancer) cell line. As to the kind of experiment: In vitro cytotoxic activity, MTT assay, MCF-7. The settings on record: for IC50: MCF7, 50, 25, 12.5 and 6.25 μM, three independent experiments, read-out: IC50 ± SEM (50% cell growth inhibition), MCF7; for Cytotoxic activity in words (comparison): MCF-7, 6.2 μM to 50 μM. The procedure: as §1, §2, §3, §4
Data set [4] concerns HCT15 (human colon cancer) cell line. Nature of the data set: In vitro cytotoxic activity, MTT assay, HCT15. The settings on record: for IC50: 50, 25, 12.5 and 6.25 μM, three independent experiments, read-out: IC50 ± SEM (50% cell growth inhibition), HCT15; for Cytotoxic activity in words (comparison): 6.2 μM to 50 μM. On the procedure:
as §1, §2, §3, §4

What is called IC50 is the concentration needed to halve the response being measured.

Turning to “cis-bis(triethylphosphine)di(tetrahydropyrimidine-2(1H)-thione)platinum(II) [Complex (5)]”, the IC50 in data set [1] was determined as 2.23 ± 0.52 µM; in data set [2], 4.5 ± 0.78 µM; in data set [3], 4.73 ± 0.95 µM; in data set [4], 6.87 ± 1.07 µM.
Regarding `CCN1CCCNC1=[SH][Pt+2]([SH]=C1NCCCN1CC)([PH](CC)(CC)CC)[PH](CC)(CC)CC.[Cl-].[Cl-]` [Complex (6)], the “Cytotoxic activity in words (comparison)” value is “better than cisplatin and carboplatin” in data set [1]; “better than cisplatin and carboplatin” in data set [2]; “highest activity” in data set [3]; “better than cisplatin and carboplatin” in data set [4]. Moreover, the IC50 in data set [1] turned out to be 1.83 ± 0.35 µM; in data set [2] it was 3.6 ± 0.72 µM; in data set [3], 1.23 ± 0.34 µM; in data set [4], 5.7 ± 0.91 µM.
Take `N.N.[Cl][Pt][Cl]` [Cisplatin, cis-diaminedichlorido platinum(II) complex cis-[(NH3)2PtCl2], reference compound]: the 50% inhibitory concentration (IC50) in data set [1] was 19.2 ± 1.81 µM; in data set [2] it was 41.7 ± 1.17 µM; in data set [3] it was 22.4 ± 1.37 µM; in data set [4], 29.7 ± 2.35 µM.
Take `CC[PH](CC)(CC)[Pt+2]([SH]=C1NCCCCN1)([SH]=C1NCCCCN1)[PH](CC)(CC)CC.[Cl-].[Cl-]` [Complex (7), cis-bis(triethylphosphine)di(1,3-diazepane-thione)platinum(II)]: the IC50 in data set [1] is 17.3 ± 1.34 µM; in data set [2], 27.7 ± 1.48 µM; in data set [3], 22.3 ± 1.35 µM; in data set [4], 37.1 ± 1.86 µM.
For the compound `CC[PH](CC)(CC)[Pt+2]([SH]=C1NCCN1)([SH]=C1NCCN1)[PH](CC)(CC)CC.[Cl-].[Cl-]` [Complex (1), cis-bis(triethylphosphine)di(imidazolidine-2-thione)platinum(II)], the half-maximal inhibitory concentration (IC50) in data set [1] was found to be 1.4 ± 0.29 µM; in data set [2] it was 3.5 ± 0.74 µM; in data set [3], 4.67 ± 1.05 µM; in data set [4], 7.03 ± 1.04 µM.
Take `N.N.O=C([O-])C1(C(=O)[O-])CCC1.[Pt+2]` [Carboplatin, carboplatin, reference compound]: the IC50 in data set [1] worked out at 56.5 ± 2.23 µM; in data set [2], 71.2 ± 2.84 µM; in data set [3], 55.6 ± 2.53 µM; in data set [4] it was 63.9 ± 2.25 µM.
`CCN1CCN(CC)C1=[SH][Pt+2]([SH]=C1N(CC)CCN1CC)([PH](CC)(CC)CC)[PH](CC)(CC)CC.[Cl-].[Cl-]` [Complex (4), cis-bis(triethylphosphine)di(1,3-diethylimidazolidine-2-thione)platinum(II)]: the IC50 in data set [1] was 9.9 ± 1.65 µM; in data set [2], 12.6 ± 1.09 µM; in data set [3], 13.5 ± 1.36 µM; in data set [4], 16.1 ± 1.13 µM.
Consider “cis-bis(triethylphosphine)di(1-methylimidazolidine-2-thione)platinum(II) [Complex (2)]”, for which the IC50 came out at 1.83 ± 0.26 µM in data set [1], 3.93 ± 0.47 µM in data set [2], 2.63 ± 0.88 µM in data set [3] and 8.6 ± 0.93 µM in data set [4].
Take `CC[PH](CC)(CC)[Pt+2]([SH]=C1N(C)CCN1C)([SH]=C1N(C)CCN1C)[PH](CC)(CC)CC.[Cl-].[Cl-]` [Complex (3), cis-bis(triethylphosphine)di(1,3-dimethylimidazolidine-2-thione)platinum(II)]: the “Cytotoxic activity in words (comparison)” value in data set [1], in data set [2], in data set [3] and in data set [4] was “most effective against all cancer cell lines” in each case. Besides, the IC50 in data set [1] was 1.5 ± 0.21 µM; in data set [2], 2.37 ± 0.29 µM; in data set [3], 3.77 ± 0.61 µM; in data set [4], 4.23 ± 0.73 µM.
On to `CCP(CC)CC.CCP(CC)CC.[Cl][Pt][Cl]` [Pt(II) precursor, cis-Bis(triethylphosphine)platinum(II)chloride, reference compound], for which the IC50 turned out to be 45.8 ± 2.33 µM in data set [1], 55.6 ± 2.53 µM in data set [2], 59.8 ± 2.15 µM in data set [3] and 39.1 ± 1.98 µM in data set [4].
